pIC50: −log10 of the molar value. Where two headings read alike, the source gives them in different places.
Legend:
[1] = system: primary human total T-cells; assay: T-cell activation, IL-2 secretion, Biological Example 2; format: cell-based; details: 48 hours, fold change over baseline; for fold induction at 0.3 µM: 0.3 μM inhibitor; for fold induction at 1 µM: 1 μM inhibitor; for fold induction at 3 µM: 3 μM inhibitor
Cbl-b = Cbl-b (Homo sapiens (Human), UniProt Q13191); assay: Cbl-b displacement assay (Cbl-b inhibition assay), Biological Example 1; format: binding
Chain of Cbl-b (Q13191 36-427): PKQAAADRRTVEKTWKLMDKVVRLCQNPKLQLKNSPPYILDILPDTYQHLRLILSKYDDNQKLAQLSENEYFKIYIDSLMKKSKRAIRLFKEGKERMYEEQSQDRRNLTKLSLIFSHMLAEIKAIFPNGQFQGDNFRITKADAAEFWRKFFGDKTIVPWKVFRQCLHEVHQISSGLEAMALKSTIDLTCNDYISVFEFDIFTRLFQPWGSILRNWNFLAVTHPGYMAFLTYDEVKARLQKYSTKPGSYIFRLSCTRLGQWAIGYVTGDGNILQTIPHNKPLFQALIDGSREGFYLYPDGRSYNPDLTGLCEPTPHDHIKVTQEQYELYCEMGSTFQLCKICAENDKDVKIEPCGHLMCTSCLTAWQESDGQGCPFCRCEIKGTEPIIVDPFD
Outline: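 Avitag-biotinylated human Cbl-b (residues 36–427) at 0.5 nM ("High") or 0.125 nM ("Low") pre-incubated 1 h with compound (1% DMSO) in HEPES pH 7.5/NaCl/Triton/BSA/TCEP, RT. Then 1 h with 150 nM BODIPY FL inhibitor probe (~EC40) plus 2 nM streptavidin-Tb. TR-FRET read at 520/620 nm for probe displacement.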

[2] = system: primary human total T-cells; assay: T-cell activation, CD25 surface staining, Biological Example 2; format: cell-based; details: 48 hours, fold change over baseline; for fold induction at 0.3 µM: 0.3 μM inhibitor; for fold induction at 1 µM: 1 μM inhibitor; for fold induction at 3 µM: 3 μM inhibitor
[3] = anti-CD3 and anti-CD28 co-stimulation
[4] = anti-CD3 and anti-CD28 co-stimulation, read-out: IL-2 secretion CD3/CD28 1 μM
[5] = anti-CD3 stimulation alone, read-out: IL-2 secretion CD3 1 μM
[6] = 0.125 nM Cbl-b final concentration (Low), read-out: Cbl-b activity IC50 (Low)
[7] = read-out: IC50 values in the Cbl-b inhibition assay of Biological Example 1
[8] = anti-CD3 and anti-CD28 co-stimulation, read-out: CD25 staining CD3/CD28 1 μM
[9] = anti-CD3 stimulation alone, read-out: CD25 staining CD3 1 μM

| Compound | fold induction at 0.3 µM [1, 3] | fold induction at 1 µM [1, 4] | fold induction at 1 µM [1, 5] | fold induction at 3 µM ([1]; anti-CD3 stimulation alone) | pIC50 (Cbl-b; [6]) | pIC50 (Cbl-b; [7]) | fold induction at 0.3 µM [2, 3] | fold induction at 1 µM [2, 8] | fold induction at 1 µM [2, 9] | fold induction at 3 µM ([2]; anti-CD3 stimulation alone) |
| --- | --- | --- | --- | --- | --- | --- | --- | --- | --- | --- |
| Cn1cnnc1C[C@]1(c2cccc(N3Cc4c(cc(CNC5CCC(F)(F)C5)nc4C4CC4)C3=O)c2)C[C@H](C#N)C1 (stereo partly drawn) [Compound 39, (1r,3r)-3-(3-(4-cyclopropyl-6-(((3,3-difluorocyclopentyl)amino)methyl)-1-oxo-1,3-dihydro-2H-pyrrolo[3,4-c]pyridin-2-yl)phenyl)-3-((4-methyl-4H-1,2,4-triazol-3-yl)methyl)cyclobutane-1-carbonitrile] | ≤ 15 | ≤ 15 | < 0.4 | < 0.4 | 8.70 to 9.00 | 8.70 to 9.00 | 1.24 to 1.39 | ≤ 1.24 | ≤ 1 | ≤ 1 |
| C[C@H]1CCCN(Cc2cc3c(c(C4CC4)n2)CN(c2cccc([C@]4(Cc5nncn5C)C[C@@H](C#N)C4)c2)C3=O)C1 [Compound 40, (1r,3r)-3-(3-(4-cyclopropyl-6-(((S)-3-methylpiperidin-1-yl)methyl)-1-oxo-1,3-dihydro-2H-pyrrolo[3,4-c]pyridin-2-yl)phenyl)-3-((4-methyl-4H-1,2,4-triazol-3-yl)methyl)cyclobutane-1-carbonitrile] | ≤ 15 | 15 to 20 | 0.4 to 0.85 | > 0.85 | 8.70 to 9.00 | 8.70 to 9.00 | 1.24 to 1.39 | 1.24 to 1.39 | 1 to 1.15 | ≤ 1 |
| Cn1cnnc1C[C@]1(c2cccc(N3Cc4c(cc(CN5CCCOC(CO)C5)cc4C(F)(F)F)C3=O)c2)C[C@H](C#N)C1 (stereo partly drawn) [Compound 41, (1r,3r)-3-(3-(6-((2-(hydroxymethyl)-1,4-oxazepan-4-yl)methyl)-1-oxo-4-(trifluoromethyl)isoindolin-2-yl)phenyl)-3-((4-methyl-4H-1,2,4-triazol-3-yl)methyl)cyclobutane-1-carbonitrile] | ≤ 15 | ≤ 15 | < 0.4 | < 0.4 | 8.30 to 8.70 |  | 1.24 to 1.39 | > 1.39 | ≤ 1 | 1 to 1.15 |
| C[C@@H]1CN(Cc2cc3c(c(C4CC4)n2)CN(c2cccc([C@]4(Cc5nncn5C)C[C@@H](C#N)C4)c2)C3=O)CCC1(F)F [Compound 42, (1R,3r)-3-(3-(4-cyclopropyl-6-(((R)-4,4-difluoro-3-methylpiperidin-1-yl)methyl)-1-oxo-1,3-dihydro-2H-pyrrolo[3,4-c]pyridin-2-yl)phenyl)-3-((4-methyl-4H-1,2,4-triazol-3-yl)methyl)cyclobutane-1-carbonitrile] | 15 to 20 | > 20 | > 0.85 | > 0.85 | 8.30 to 8.70 |  | ≤ 1.24 | ≤ 1.24 | 1 to 1.15 | 1 to 1.15 |
| CCC1COCCN(Cc2cc3c(c(C(F)(F)F)c2)CN(c2cccc([C@]4(Cc5nncn5C)C[C@@H](C#N)C4)c2)C3=O)C1 (stereo partly drawn) [Compound 43, (1r,3r)-3-(3-(6-((6-ethyl-1,4-oxazepan-4-yl)methyl)-1-oxo-4-(trifluoromethyl)isoindolin-2-yl)phenyl)-3-((4-methyl-4H-1,2,4-triazol-3-yl)methyl)cyclobutane-1-carbonitrile] | ≤ 15 | > 20 | 0.4 to 0.85 | 0.4 to 0.85 | 8.30 to 8.70 |  | ≤ 1.24 | ≤ 1.24 | 1 to 1.15 | 1 to 1.15 |
| Cn1cnnc1C[C@]1(c2cccc(N3Cc4c(cc(CN5CCOCC(CO)C5)cc4C(F)(F)F)C3=O)c2)C[C@H](C#N)C1 (stereo partly drawn) [Compound 44, (1r,3r)-3-(3-(6-((6-(hydroxymethyl)-1,4-oxazepan-4-yl)methyl)-1-oxo-4-(trifluoromethyl)isoindolin-2-yl)phenyl)-3-((4-methyl-4H-1,2,4-triazol-3-yl)methyl)cyclobutane-1-carbonitrile] | ≤ 15 | ≤ 15 | < 0.4 | < 0.4 | 8.70 to 9.00 | 8.70 to 9.00 | ≤ 1.24 | ≤ 1.24 | ≤ 1 | 1 to 1.15 |
| COCC1CCCCN(Cc2cc3c(c(C(F)(F)F)c2)CN(c2cccc([C@]4(Cc5nncn5C)C[C@@H](C#N)C4)c2)C3=O)C1 (stereo partly drawn) [Compound 45, (1r,3r)-3-(3-(6-((3-(methoxymethyl)azepan-1-yl)methyl)-1-oxo-4-(trifluoromethyl)isoindolin-2-yl)phenyl)-3-((4-methyl-4H-1,2,4-triazol-3-yl)methyl)cyclobutane-1-carbonitrile] | ≤ 15 | > 20 | 0.4 to 0.85 | > 0.85 | 8.30 to 8.70 | 8.30 to 8.70 | 1.24 to 1.39 | 1.24 to 1.39 | 1 to 1.15 | 1 to 1.15 |
| COCC1COCCN(Cc2cc3c(c(C(F)(F)F)c2)CN(c2cccc([C@]4(Cc5nncn5C)C[C@@H](C#N)C4)c2)C3=O)C1 (stereo partly drawn) [Compound 46, (1r,3r)-3-(3-(6-((6-(methoxymethyl)-1,4-oxazepan-4-yl)methyl)-1-oxo-4-(trifluoromethyl)isoindolin-2-yl)phenyl)-3-((4-methyl-4H-1,2,4-triazol-3-yl)methyl)cyclobutane-1-carbonitrile] | ≤ 15 | 15 to 20 | 0.4 to 0.85 | > 0.85 | 7.70 to 8.30 | 7.70 to 8.30 | > 1.39 | > 1.39 | > 1.15 | > 1.15 |
| Cn1cnnc1C[C@]1(c2cccc(N3Cc4c(cc(CN5CC6CCC(F)(F)C6C5)cc4C(F)(F)F)C3=O)c2)C[C@H](C#N)C1 (stereo partly drawn) [Compound 47, (1r,3r)-3-(3-(6-((4,4-difluorohexahydrocyclopenta[c]pyrrol-2(1H)-yl)methyl)-1-oxo-4-(trifluoromethyl)isoindolin-2-yl)phenyl)-3-((4-methyl-4H-1,2,4-triazol-3-yl)methyl)cyclobutane-1-carbonitrile] | > 20 | > 20 | > 0.85 | > 0.85 | 8.30 to 8.70 | 8.30 to 8.70 | > 1.39 | > 1.39 | > 1.15 | > 1.15 |
| Cn1cnnc1C[C@]1(c2cccc(N3Cc4c(cc(CN5CCCCC(CO)C5)cc4C(F)(F)F)C3=O)c2)C[C@H](C#N)C1 (stereo partly drawn) [Compound 48, (1r,3r)-3-(3-(6-((3-(hydroxymethyl)azepan-1-yl)methyl)-1-oxo-4-(trifluoromethyl)isoindolin-2-yl)phenyl)-3-((4-methyl-4H-1,2,4-triazol-3-yl)methyl)cyclobutane-1-carbonitrile] | ≤ 15 | > 20 | 0.4 to 0.85 | 0.4 to 0.85 | 8.70 to 9.00 | 8.70 to 9.00 | > 1.39 | > 1.39 | > 1.15 | > 1.15 |
| Cn1cnnc1C[C@]1(c2cccc(N3Cc4c(cc(CN5CCC[C@H](C(F)(F)F)C5)nc4C4CC4)C3=O)c2)C[C@H](C#N)C1 [Compound 49, (1r,3r)-3-(3-(4-cyclopropyl-1-oxo-6-(((S)-3-(trifluoromethyl)piperidin-1-yl)methyl)-1,3-dihydro-2H-pyrrolo[3,4-c]pyridin-2-yl)phenyl)-3-((4-methyl-4H-1,2,4-triazol-3-yl)methyl)cyclobutane-1-carbonitrile] | > 20 | > 20 | > 0.85 | > 0.85 | > 9.00 | > 9.00 | > 1.39 | > 1.39 | > 1.15 | > 1.15 |
| Cn1cnnc1C[C@]1(c2cccc(N3Cc4c(cc(CN5CCCCC(F)(F)C5)cc4C(F)(F)F)C3=O)c2)C[C@H](C#N)C1 [Compound 50, (1r,3r)-3-(3-(6-((3,3-difluoroazepan-1-yl)methyl)-1-oxo-4-(trifluoromethyl)isoindolin-2-yl)phenyl)-3-((4-methyl-4H-1,2,4-triazol-3-yl)methyl)cyclobutane-1-carbonitrile] | > 20 | > 20 | > 0.85 | 0.4 to 0.85 | 8.30 to 8.70 | 8.30 to 8.70 | > 1.39 | > 1.39 | > 1.15 | > 1.15 |
